Values quoted from earlier work in patent publication US20060068015A1, “Solid dosage form comprising a fibrate and a statin” (priority 2003, published 2006).

Legend:
[1] = for solubility in water: water / distilled water

For `CC[C@H](C)C(=O)O[C@H]1C[C@H](O)C=C2C=C[C@H](C)[C@H](CC[C@@H](O)C[C@@H](O)CC(=O)[O-])[C@H]21.[Na+]` (relative stereo) [Pravastatin sodium, 1-naphthalene-heptanoic acid, 1,2,6,7,8,8a-hexahydro-(beta), (beta),6-trihydroxy-2-methyl-8-(2-methyl-1-oxobutoxy)-, monosodium salt, [1S-[1(alpha)((beta)S*,(beta)S*),2(alpha),6(alpha), 8(beta)(R*),8a(alpha)]]-], the solubility in acetone ([1]; acetone) is listed as “practically insoluble”, the solubility in acetonitrile ([1]; acetonitrile) is listed as “practically insoluble” and the solubility in chloroform ([1]; chloroform) is listed as “practically insoluble”. The solubility in ether ([1]; ether) was “practically insoluble”.

In the case of `CC(C)c1c(C(=O)Nc2ccccc2)c(-c2ccccc2)c(-c2ccc(F)cc2)n1CC[C@@H](O)C[C@@H](O)CC(=O)O` [Atorvastatin], the “systemic availability of HMG-COA reductase inhibitory activity” value (oral administration) is given as “approximately 30%”.

In the case of `CC(C)(Oc1ccc(C(=O)c2ccc(Cl)cc2)cc1)C(=O)O` [Fenofibric acid], the elimination half-life (in vivo) is listed as “about 20 hours”.

In the case of `CC[C@H](C)C(=O)O[C@H]1C[C@H](O)C=C2C=C[C@H](C)[C@H](CC[C@@H](O)C[C@@H](O)CC(=O)O)[C@H]21` [Pravastatin], the bioavailability (oral administration) is listed as “about 30%” and the solubility in water [1] is listed as “water-soluble”.

For `CC(C)c1nc(N(C)S(C)(=O)=O)nc(-c2ccc(F)cc2)c1/C=C/[C@@H](O)C[C@@H](O)CC(=O)O` [Rosuvastatin], the bioavailability (oral administration) is listed as “about 50%” and the solubility in water [1] is listed as “poor water-solubility”.

For `CC(C)n1c(/C=C/C(O)CC(O)CC(=O)O)c(-c2ccc(F)cc2)c2ccccc21` (stereo not shown) [fluvastatin], the solubility in water [1] is given as “water-soluble”.

For `CC[C@H](C)C(=O)O[C@H]1C[C@@H](C)C=C2C=C[C@H](C)[C@H](CC[C@@H]3C[C@@H](O)CC(=O)O3)[C@H]21` [lovastatin], the solubility in water [1] is listed as “poor water-solubility”.

For `O=C(O)C[C@H](O)C[C@H](O)/C=C/c1c(C2CC2)nc2ccccc2c1-c1ccc(F)cc1` [pitavastatin], the solubility in water [1] is listed as “poor water-solubility”.
